Laboratory results published in patent US20240269291A1, “Transcutol-Polyol-Active Agent Ternary Complex, Pharmaceutical Composition for Topical Use Comprising Same, Method for Obtaining Same and Use Thereof in Different Pathologies” (FUNDACIÓN GAIKER, priority 2021, published 2024).

Columns and labels:
sick people = assay: Application of the cream on sick people; conditions: in vivo
Description: In the numerous tests that were carried out on sick people, it has been observed that the introduction of a correct concentration of polyphenols (with “correct” being understood as the fact that there are 200 mg of the polyphenol in each 5 g application of pharmaceutical composition) in a solution for topical use (preferably a cream) has very beneficial effects in treating at least the following pathologies: subcutaneous inflammations such as fasciitis and fasciosis, tendon inflammation or irritation (tendonitis), carpal tunnel inflammation, varicose vein reduction, joint inflammation and blows and bruises.

[1] = printed as negative log P; cited from earlier work
[2] = safety index of 100 times, cited from earlier work

| crossing of the blood-brain barrier (sick people) | SMILES | log P [1] | recommended limit via the dermal route ([2]; dermal route) | recommended limit via the oral route ([2]; oral route) |
| --- | --- | --- | --- | --- |
| able to cross the blood-brain barrier | C[C@@H]1O[C@@H](OC[C@H]2O[C@@H](Oc3c(-c4ccc(O)c(O)c4)oc4cc(O)cc(O)c4c3=O)[C@H](O)[C@@H](O)[C@@H]2O)[C@H](O)[C@H](O)[C@H]1O [rutin] | – | – | – |
| – | CCOCCOCCO [transcutol, 2-(2-Ethoxyethoxy) ethanol] | ~0.5 | 20 mg/kg | 10 mg/kg |
